Values of other authors as cited in patent US20240335409A1, “SYSTEMS AND METHODS FOR DELIVERY OF PHENYLALANINE AND LACTATE” (Transdermal Biotechnology, Inc., priority 2022, published 2024).

water solubility: > 2 mM
SMILES: C[C@H](O)C(=O)N[C@@H](Cc1ccccc1)C(=O)O [Lac-Phe, N-lactoyl-phenylalanine]
effect on food intake and obesity (mice): effectively reduce food intake and obesity
